This is an account of results in ChEMBL document CHEMBL1201862, “PubChem BioAssay data set” (2004).

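Cultured in 96-well plates, cells were exposed to test compound for 48 hours across five concentrations. Here, GI50 denotes the concentration required for 50% inhibition of growth.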 The source made the active and inactive calls. Cut-off read from the data, not from the text of the source: active = GI50 up to about 1.1 µM and inactive = higher.

A word on the GI50: it is the concentration that inhibits growth by half.

Experiment in all cases: DTP human tumour cell line panel, 48 h
The subject of test [1] is NCI/ADR-RES.
In test [2] the test system is XF498.
For test [3], the system named is DLD-1.
Test [4] deals with M19-MEL.
Test [5] has as its system HOP-18.
Test [6] has as its system MDA-MB-231.
Test [7] deals with LXFL 529.
Test [8] deals with RXF 631.
The test system of test [9] is 786-0.

In the case of `Cc1nc(O)nc(O)c1/C=C/C(=O)O`, the GI50 in test [1], in test [2], in [3], in test [4] and in test [5] was > 1000 µM (inactive) each time.
As for `CC(=O)c1c(-c2ccco2)c(C#N)c(=S)n(C2OC(CO)C(O)C(O)C2O)c1-c1ccccc1` (stereo not drawn), the GI50 is 55.1 µM (inactive) in [1] and > 100 µM (inactive) in test [6].
With `CC(=O)OC1COC(N2c3ccccc3[C@@H]3CCc4c([nH]c5ccccc45)[C@@H]32)C(OC(C)=O)C1OC(C)=O.CC(=O)OC1COC(N2c3ccccc3[C@H]3CCc4c([nH]c5ccccc45)[C@H]32)C(OC(C)=O)C1OC(C)=O` (stereo partly drawn), in [6], the GI50 was 14 µM (inactive).
Take `Cc1cc(NC(=S)Nc2ccccc2)c(NC(=S)Nc2ccccc2)cc1C`: the GI50 in test [1] is 11.5 µM (inactive); in test [2] it was 16.4 µM (inactive); in [3] it was 20.4 µM (inactive); in [4], 23.3 µM (inactive); in test [5], 43.2 µM (inactive).
For the compound `CCC1C(C#N)=C(O)NC(O)=C1C#N`, the GI50 in test [7], in test [2], in [3], in test [4], in test [8] and in [5] was > 100 µM (inactive) throughout.
As to `O=C1c2cccc(O)c2C(=O)c2c(O)cc(CO)cc21` [ALOE-EMODIN], the GI50 in test [7] was 56 µM (inactive); in [2] it was > 100 µM (inactive); in [3], 32.5 µM (inactive); in test [8], 67.5 µM (inactive); in [5], > 100 µM (inactive).
Regarding `C=C1C(=O)OC2C[C@@]3(C)CCCC(=C)C3CC12` (stereo partly drawn), the GI50 in test [7] is 3.2 µM (inactive); in test [2], 3.69 µM (inactive); in test [3], 3.49 µM (inactive); in [5], 17.5 µM (inactive).
On to `CC1=C2C(O)C(C(C)C(=O)N(C)C)CCC2(C)C=CC1=O` (stereo not drawn), for which the GI50 in test [1], in test [2], in test [3], in test [4] and in test [5] was > 100 µM (inactive) in each case.
On to `CCN1c2ccccc2-n2c(C)nnc2-c2c(-c3ccccc3)n[nH]c21`, for which the GI50 was 11.9 µM (inactive) in test [1] and 18.9 µM (inactive) in [6].
For `COc1ccc(-c2cc(O)c3c(C)ccnc3n2)cc1` the same measures were 20.2 µM (inactive) and 49.5 µM (inactive).
For `CC1C(=O)C(C)C(c2ccco2)N(N=O)C1c1ccco1` (stereo not drawn), the GI50 is > 100 µM (inactive) in test [1]; < 0.01 µM (active) in test [2]; > 100 µM (inactive) in test [3]; > 100 µM (inactive) in test [4]; > 67.1 µM (inactive) in [5].
With `O=C(N/C(=C\c1ccccc1[N+](=O)[O-])c1nc2ccccc2[nH]1)c1ccccc1`, the GI50 is 59.4 µM (inactive) in [7]; > 100 µM (inactive) in [2]; 93.5 µM (inactive) in test [3]; > 100 µM (inactive) in test [4]; > 100 µM (inactive) in test [8].
Turning to `CC1=Nc2c(N)nc(N)nc2N(C)C1`, in test [6], the GI50 is > 100 µM (inactive).
On to `Cc1nc(Cl)c(C)c(Cl)n1`, for which the GI50 in [1] was > 53 µM (inactive); in test [9], > 100 µM (inactive); in [6], > 100 µM (inactive).
Turning to `O=C(CCN1CCOCC1)/C(=C/c1ccccc1)c1ccccc1`, the GI50 in test [1] is 2.48 µM (inactive); in test [2], 6.5 µM (inactive); in test [3] it was 1.89 µM (inactive); in [4] it was 3.82 µM (inactive); in [5], 16.7 µM (inactive).
With `CCOC(=O)CCN1C(=O)c2c(NC(=O)C(=O)O)cccc2S1(=O)=O`, the GI50 in test [1], in test [9] and in test [6] was > 100 µM (inactive) each time.
On to `CCOC(=O)NC(Nc1ncccn1)(C(F)(F)F)C(F)(F)F`, for which the GI50 in test [6] was > 100 µM (inactive).
On the same count and under the same terms, the figure for `CCOc1ncn(-c2ccc(NC(=S)Nc3ncccn3)cc2)n1` is 24.8 µM (inactive).
Consider `CCP(=O)(CC)C(Cl)(Cl)C(O)C(Cl)(Cl)Cl` (stereo not drawn), for which the GI50 in test [1] and in test [6] was > 100 µM (inactive) throughout.
Take `O=C1CCC(=O)C1=NNc1ccccc1`: the GI50 in [3], in test [9], in test [4], in test [8] and in [5] was > 100 µM (inactive) throughout.
